This note sets out measurements from patent US9708314B2, “Heterocyclic amide compound” (NISSAN CHEMICAL INDUSTRIES, LTD., priority 2013, dated 2017).

SMILES strings stand for the structures.

Common to all, as to format: in vivo
The subject of series [1] is Alopecurus myosuroides. The series is described as follows: Test Example 4: herbicidal effect by application to foliage (diluvial soil, plastic box). Put shortly: (§1)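 Read-out is a 0–5 visual grade of herbicidal ratio (5: ≥90%, almost withered; 0: ≤5%) taken three weeks after treatment. Compound was applied as a diluted emulsion to stem and leaf parts of 14-day greenhouse-grown plants (25° C. to 30° C.) at rates expressed as g/ha.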

Series [2] has as its system Echinochloa crus-galli var. crus-galli. The description is as above. Put shortly:
as §1

In series [3] the test system is Galium spurium. The description is as above. The method in brief:
as §1

In series [4] the test system is Veronica persica. Described as above. Put shortly:
as §1

For series [5], the system named is Apera spica-venti. The description is as above. The method in brief:
as §1

In series [6] the test system is Abutilon theophrasti. The series is described as above. The method in brief:
as §1

The subject of series [7] is Setaria viridis. Described as above. The method in brief: as §1
The test system of series [8] is Digitaria ciliaris. The series is described as above. The method in brief:
as §1

In series [9] the test system is Chenopodium album. The series is described as above. Put shortly: as §1
Series [10] deals with Lolium multiflorum Lam. The description is as above. The method in brief:
as §1

In series [11] the test system is Avena fatua. Described as above. The method in brief:
as §1

Series [12] concerns directly sowed Oryza sativa. Put plainly: Test Example 3: effect on crop by application to foliage (Wagner pot, water depth 0.1-0.5 cm). As to conditions: Nineteenth Table; application to foliage; application herbicide amount 320 g/ha. The method in brief:
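Grading uses six bands of herbicidal ratio, from 0 (≤5%, almost no effect) to 5 (≥90%, almost completely withered). Treatment was a stem-and-leaf spray of diluted emulsion at a fixed g/ha on 14-day-old plants; evaluation after three weeks.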

Series [13] concerns Stellaria media. Put plainly: Test Example 4: herbicidal effect by application to foliage (diluvial soil, plastic box). As to conditions: application to foliage, application herbicide amount 320 g/ha. The method in brief: as §1
The test system of series [14] is Amaranthus retroflexus. Described as above. As to conditions: Application herbicide amount 320 g/ha; foliage application. Put shortly:
as §1

[15] abbreviates: Application herbicide amount 320 g/ha.
Where [16] appears, read: application to foliage, application herbicide amount 320 g/ha.
The mark [17] stands for this setting: Application herbicide amount 320 g/ha, foliage application.

On to `COCCOC(=O)Cc1nnc2c(C(=O)Nc3nnc(C)o3)ccc(C(F)(F)F)n12` [1-060], for which the J in [1] (setting [15]) was 2 (Herbicidal ratio of 20% or more and less than 40%). In addition, the H in [2] (setting [15]) is listed as 5 (Herbicidal ratio of 90% or more (almost completely withered)). Further, the Q in series [3] (setting [15]) is 3 (Herbicidal ratio of 40% or more and less than 70%). Besides, in [4] (setting [15]), the R is listed as 5 (Herbicidal ratio of 90% or more (almost completely withered)). For the same compound, the L in [5] (setting [15]) is 1 (Herbicidal ratio of 5% or more and less than 20%). Further, the M in series [6] (setting [15]) was 4 (Herbicidal ratio of 70% or more and less than 90%). Moreover, in series [7] (setting [15]), the G was 3 (Herbicidal ratio of 40% or more and less than 70%). In [8] (setting [15]), the F is 5 (Herbicidal ratio of 90% or more (almost completely withered)). For the same compound, in series [9] (setting [15]), the O is recorded as 5 (Herbicidal ratio of 90% or more (almost completely withered)). In addition, the K in series [10] (setting [15]) is 2 (Herbicidal ratio of 20% or more and less than 40%). Besides, the I in series [11] (setting [15]) was 3 (Herbicidal ratio of 40% or more and less than 70%). The “b (effect on crop grade)” value in series [12] is 2 (Herbicidal ratio of 20% or more and less than 40%).
Regarding `COC1CCC(c2nnc3c(C(=O)Nc4nnc(C)o4)ccc(C(F)(F)F)n23)CC1` (centres unmarked) [1-169], in series [13], the “P: herbicidal effect on Stellaria media” value is recorded as 5 (Herbicidal ratio of 90% or more (almost completely withered)). Besides, the “J: herbicidal effect on Alopecurus myosuroides” value in [1] (setting [16]) is 1 (Herbicidal ratio of 5% or more and less than 20%). The “H: herbicidal effect on Echinochloa crus-galli var. crus-galli” value in series [2] (setting [16]) is 5 (Herbicidal ratio of 90% or more (almost completely withered)). In addition, the “Q: herbicidal effect on Galium spurium” value in series [3] (setting [16]) is 1 (Herbicidal ratio of 5% or more and less than 20%). For the same compound, the “R: herbicidal effect on Veronica persica” value in series [4] (setting [16]) was 4 (Herbicidal ratio of 70% or more and less than 90%). Also, in series [5] (setting [16]), the “L: herbicidal effect on Apera spica-venti.” value was 1 (Herbicidal ratio of 5% or more and less than 20%). In [6] (setting [16]), the “M: herbicidal effect on Abutilon theophrasti” value was 3 (Herbicidal ratio of 40% or more and less than 70%). In addition, the “G: herbicidal effect on Setaria viridis” value in [7] (setting [16]) is 3 (Herbicidal ratio of 40% or more and less than 70%). The “F: herbicidal effect on Digitaria ciliaris” value in series [8] (setting [16]) was 4 (Herbicidal ratio of 70% or more and less than 90%). In addition, in series [9] (setting [16]), the “O: herbicidal effect on Chenopodium album” value is recorded as 5 (Herbicidal ratio of 90% or more (almost completely withered)). Further, the “K: herbicidal effect on Lolium multiflorum Lam.” value in series [10] (setting [16]) was 1 (Herbicidal ratio of 5% or more and less than 20%). Further, the “I: herbicidal effect on Avena fatua” value in series [11] (setting [16]) was 1 (Herbicidal ratio of 5% or more and less than 20%). Further, the “b (effect on crop grade)” value in [12] was 1 (Herbicidal ratio of 5% or more and less than 20%).
Consider `CN(C)c1nnc2c(C(=O)Nc3nnco3)ccc(C(F)(F)F)n12` [1-103], for which, in [1] (setting [15]), the J is 2 (Herbicidal ratio of 20% or more and less than 40%). Moreover, the H in series [2] (setting [15]) is recorded as 5 (Herbicidal ratio of 90% or more (almost completely withered)). In addition, in [3] (setting [15]), the Q is 4 (Herbicidal ratio of 70% or more and less than 90%). For the same compound, in series [4] (setting [15]), the R was 5 (Herbicidal ratio of 90% or more (almost completely withered)). The L in [5] (setting [15]) was 3 (Herbicidal ratio of 40% or more and less than 70%). The M in [6] (setting [15]) is 4 (Herbicidal ratio of 70% or more and less than 90%). Moreover, the G in [7] (setting [15]) is reported as 5 (Herbicidal ratio of 90% or more (almost completely withered)). The F in series [8] (setting [15]) was 5 (Herbicidal ratio of 90% or more (almost completely withered)). For the same compound, in series [9] (setting [15]), the O was 5 (Herbicidal ratio of 90% or more (almost completely withered)). In series [10] (setting [15]), the K was 3 (Herbicidal ratio of 40% or more and less than 70%). For the same compound, the I in series [11] (setting [15]) was 4 (Herbicidal ratio of 70% or more and less than 90%). For the same compound, in [12], the “b (effect on crop grade)” value is 4 (Herbicidal ratio of 70% or more and less than 90%).
On to `COCCSc1nnc2c(C(=O)Nc3nnc(C)o3)ccc(C(F)(F)F)n12` [1-063], for which the J in series [1] (setting [15]) is 2 (Herbicidal ratio of 20% or more and less than 40%). Besides, the H in series [2] (setting [15]) is on record as 5 (Herbicidal ratio of 90% or more (almost completely withered)). Further, in series [3] (setting [15]), the Q was 3 (Herbicidal ratio of 40% or more and less than 70%). In addition, the R in series [4] (setting [15]) was 5 (Herbicidal ratio of 90% or more (almost completely withered)). Further, in series [5] (setting [15]), the L is 3 (Herbicidal ratio of 40% or more and less than 70%). Also, in [6] (setting [15]), the M was 4 (Herbicidal ratio of 70% or more and less than 90%). In [7] (setting [15]), the G is recorded as 5 (Herbicidal ratio of 90% or more (almost completely withered)). In addition, the F in [8] (setting [15]) is listed as 5 (Herbicidal ratio of 90% or more (almost completely withered)). The O in series [9] (setting [15]) was 5 (Herbicidal ratio of 90% or more (almost completely withered)). In addition, the K in [10] (setting [15]) is 2 (Herbicidal ratio of 20% or more and less than 40%). Further, the I in series [11] (setting [15]) was 2 (Herbicidal ratio of 20% or more and less than 40%). In addition, the “b (effect on crop grade)” value in [12] was 2 (Herbicidal ratio of 20% or more and less than 40%).
Regarding `Cc1nnc(NC(=O)c2ccc(C(F)(F)F)n3c(N(C)C(C)C)nnc23)o1` [1-132], the “J (Alopecurus myosuroides) herbicidal effect grade” value in series [1] (setting [17]) was 1 (Herbicidal ratio of 5% or more and less than 20%). Further, in [2] (setting [17]), the “H (Echinochloa crus-galli var. crus-galli) herbicidal effect grade” value was 5 (Herbicidal ratio of 90% or more (almost completely withered)). Further, in series [3] (setting [17]), the “Q (Galium spurium) herbicidal effect grade” value was 2 (Herbicidal ratio of 20% or more and less than 40%). Further, the “R (Veronica persica) herbicidal effect grade” value in series [4] (setting [17]) is 4 (Herbicidal ratio of 70% or more and less than 90%). In series [5] (setting [17]), the “L (Apera spica-venti.) herbicidal effect grade” value is 2 (Herbicidal ratio of 20% or more and less than 40%). The “M (Abutilon theophrasti) herbicidal effect grade” value in series [6] (setting [17]) is 4 (Herbicidal ratio of 70% or more and less than 90%). In series [7] (setting [17]), the “G (Setaria viridis) herbicidal effect grade” value was 3 (Herbicidal ratio of 40% or more and less than 70%). In series [8] (setting [17]), the “F (Digitaria ciliaris) herbicidal effect grade” value is 4 (Herbicidal ratio of 70% or more and less than 90%). Besides, in [9] (setting [17]), the “O (Chenopodium album) herbicidal effect grade” value was 5 (Herbicidal ratio of 90% or more (almost completely withered)). The “K (Lolium multiflorum Lam.) herbicidal effect grade” value in series [10] (setting [17]) is 1 (Herbicidal ratio of 5% or more and less than 20%). The “I (Avena fatua) herbicidal effect grade” value in [11] (setting [17]) is 1 (Herbicidal ratio of 5% or more and less than 20%). For the same compound, the “N (Amaranthus retroflexus) herbicidal effect grade” value in series [14] is 3 (Herbicidal ratio of 40% or more and less than 70%). For the same compound, the “b (effect on crop grade)” value in series [12] is 3 (Herbicidal ratio of 40% or more and less than 70%).
`Cc1nnc(NC(=O)c2ccc(C(F)(F)F)n3c(-c4cc5ccccc5n4C)nnc23)o1` [1-059]: in series [1] (setting [15]), the J is 0 (Herbicidal ratio of 5% or less (almost no effect)). Besides, the H in [2] (setting [15]) is 2 (Herbicidal ratio of 20% or more and less than 40%). Moreover, in series [3] (setting [15]), the Q was 0 (Herbicidal ratio of 5% or less (almost no effect)). Besides, the R in [4] (setting [15]) is 2 (Herbicidal ratio of 20% or more and less than 40%). In series [5] (setting [15]), the L is given as 0 (Herbicidal ratio of 5% or less (almost no effect)). The M in series [6] (setting [15]) is 4 (Herbicidal ratio of 70% or more and less than 90%). Further, the G in series [7] (setting [15]) is on record as 0 (Herbicidal ratio of 5% or less (almost no effect)). Besides, the F in series [8] (setting [15]) is 0 (Herbicidal ratio of 5% or less (almost no effect)). For the same compound, in series [9] (setting [15]), the O is recorded as 5 (Herbicidal ratio of 90% or more (almost completely withered)). Also, the K in series [10] (setting [15]) is listed as 0 (Herbicidal ratio of 5% or less (almost no effect)). In addition, in series [11] (setting [15]), the I is on record as 0 (Herbicidal ratio of 5% or less (almost no effect)). The “b (effect on crop grade)” value in series [12] is 0 (Herbicidal ratio of 5% or less (almost no effect)).
